Laboratory results: paper PMC8724172, “The effect of potent CYP2D6 inhibition on the pharmacokinetics and safety of deutetrabenazine in healthy volunteers” (European Journal of Clinical Pharmacology, 2021)

Assay: Open-label sequential drug-drug interaction study: plasma pharmacokinetics of deutetrabenazine and its metabolites without and with steady-state paroxetine
Parameters: AUC0−t lower by a factor in presence of paroxetine / Cmax lower by a factor in presence of paroxetine: unit not given beside the values
Settings: in vivo
Source text: This was an open-label sequential drug-drug interaction study in 24 healthy adult subjects who were CYP2D6 extensive metabolizers (EM) or CYP2D6 intermediate metabolizers (IM); Supplemental Table S1 provides the genotypes and phenotypes of the subjects.
Subjects checked into the clinic on day 1 and were confined through day 14. […] Those who met inclusion/exclusion criteria received a single dose of deutetrabenazine on day 1 followed by a 72-h washout. Subjects then received paroxetine on days 4 to 12 to achieve steady-state plasma concentrations of paroxetine by day 11. On day 11, another single dose of deutetrabenazine was administered. Triplicate 12-lead digital electrocardiograms (ECGs) were collected predose and for 10 h following deutetrabenazine dosing on day 1, and for 10 h on day 11, following paroxetine administration on day 10. Blood samples for measurement of plasma concentrations of deutetrabenazine and its metabolites were obtained on days 1 and 11 (predose, 1, 2, 2.5, 3, 3.5, 4, 4.5, 5, 6, 7, 8, 10, 12, and 16 h), days 2 and 12, at 24 and 36 h, days 3 and 13, at 48 and 60 h and days 4 and 14, at 72 h. Paroxetine trough levels were obtained pre-dose on days 9, 10, 11, and 12, and on day 13 at 24 h post the final paroxetine dose on day 12. Blood and urine samples were collected for clinical laboratory testing (hematology, serum chemistries, and urinalysis) at admission and after at least 10 h fasting and at study completion on day 14 or upon early withdrawal.
All participants received the following treatments, deutetrabenazine 22.5-mg oral dose as one 15-mg tablet + one 7.5-mg tablet on days 1 and 11 and one paroxetine 20 mg (Cadila Healthcare Ltd.) oral tablet on days 4 through 12. The deutetrabenazine 22.5-mg dose was administered with 237 mL of water in the morning approximately 30 min after a standardized breakfast meal with moderate fat content (35%). No food was allowed for at least 4 h postdose, and subjects were asked to remain upright for at least 4 h postdose, unless medically necessary.
Paroxetine 20 mg was administered in the morning with 237 mL water for 9 days (days 4 to 12) to ensure steady-state levels. On days 4 to 10 and 12, the paroxetine dose was administered in a fed state 30 min after breakfast. On day 11, as paroxetine can be administered without regard to food, subjects took the paroxetine dose under fasting conditions (at least 1 h prior to breakfast and 1.5 h prior to deutetrabenazine administration) following an overnight fast of at least 10 h. Subjects were asked to remain upright for at least 1 h after the paroxetine dose, unless medically necessary.
Validated liquid chromatography/tandem mass spectrometry methods were applied to assess plasma concentrations of paroxetine, deutetrabenazine, α- and β-HTBZ metabolites, and the O-desmethyl metabolites of α- and β-HTBZ. This was performed on a Sciex API 4000 instrument, equipped with a Turbo Ion Spray ion source operated in the positive ion mode and interfaced to a Shimadzu HPLC system fitted with a Waters XBridge C18 reverse phase column (3.5 µm; 50 × 2.1 mm) for paroxetine, deutetrabenazine, α-HTBZ and β-HTBZ or a Phenomenex Kinetex column (2.6 µm; 100 × 2.1 mm) for the O-desmethyl metabolites. The validated assay ranges were as follows: paroxetine 0.500 to 50.0 ng/mL, deutetrabenazine 0.100 to 10.0 ng/mL, deuterated α- and β-HTBZ 0.500 to 100 ng/mL, and 9-O- and 10-O-desmethyl metabolites of α-HTBZ and β-HTBZ 0.5 to 50.0 ng/mL. The methods were developed and validated by CPR Pharma Services, Pty, Ltd Australia, as described earlier.
Plasma concentrations, below the limit of quantitation (BLQ) of the assay, were designated a value of zero for initial and time points occurring at the end of the profile. For sampling time points between two quantifiable concentrations, plasma concentrations BLQ followed by a measurable concentration were set to the limit of quantitation of the assay.

Cmax (human)	AUC0-t (human, im)	Cmax (human, im)	Tmax (human, im)	Cmax (human, po, 22.5 mg)	AUC0−t lower by a factor in presence of paroxetine	Cmax lower by a factor in presence of paroxetine	t1/2 (human, im)	Quantifiability of plasma concentrations	Compound
1.4 (18) ng/mL	13.8 (65) ng × h/mL	1.2 (45) ng/mL	5.5 (3.5–12.0) h	1.3 (28) ng/mL	0.3	0.4			COc1cc2c(cc1O)CCN1C[C@@H](CC(C)C)[C@H](O)C[C@H]21 [9-O-desmethyl α-HTBZ]
4.5 (20) ng/mL	105 (33) ng × h/mL	4.2 (45) ng/mL	7.0 (4.0–24.0) h	4.4 (29) ng/mL	0.7	0.4	16.8 (13) (n = 7) h		COc1cc2c(cc1O)CCN1C[C@@H](CC(C)C)[C@@H](O)C[C@H]21 [9-O-desmethyl β-HTBZ]
								appeared transiently in some subjects	COc1cc2c(cc1O)[C@H]1C[C@H](O)[C@H](CC(C)C)CN1CC2 [10-O-desmethyl β-HTBZ]
